What all share (assay): DTP human tumour cell line panel, 48 h
The test system of assay [1] is CCRF-CEM leukemia.
In assay [2] the test system is HL-60(TB) leukemia.
Assay [3] concerns HOP-62 NSCLC.
The test system of assay [4] is K-562 leukemia.
For assay [5], the system named is NCI-H23 lung.
The subject of assay [6] is NCI-H522 lung.
Assay [7] has as its system RPMI-8226 leukemia.
Assay [8] concerns SK-OV-3 ovarian.
Assay [9] relates to U251 CNS.
In assay [10] the test system is UACC-257 melanoma.

The record followed here is PubChem BioAssay (NCI).

Each structure is given as a SMILES string.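 These data come from cells grown in 96-well plates and exposed to compound for 48 hours at five concentrations. Abbreviation: GI50, concentration required for 50% inhibition of growth. At the TGI there is no net growth.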

Broadly, the GI50 is the concentration that inhibits growth by half. For orientation: TGI means the concentration at which net growth stops. A lower TGI goes with greater sensitivity of the cells. As for `COc1ccccc1CCN=C1NC(=O)/C(=C/c2ccc3ncccc3c2)S1`, the GI50 in assay [1] is 5.45 µM; in assay [2], 4.2 µM; in assay [3], 8.17 µM; in assay [4], 1.37 µM; in assay [5] it was 8.56 µM; in assay [6], 2.36 µM. Moreover, the GI50 in assay [7] is 4.33 µM; in assay [8] it was 5.67 µM; in assay [9], 4.1 µM; in [10], 7.52 µM. Further, the TGI in assay [1] was 23 µM; in [2], 14.7 µM; in assay [3], above 25 µM; in assay [4], above 25 µM; in assay [5], above 25 µM; in assay [6] it was 7.54 µM. Also, the TGI in assay [7] is 19.6 µM; in [8], 14.4 µM; in assay [9], 24.9 µM; in [10], above 25 µM.
As to `COc1cc(C)c(Cl)cc1C1=NN(c2ccc(S(N)(=O)=O)cc2)C(/C=C/c2ccccc2)C1` (stereo not given), the GI50 was 4.34 µM in assay [1]; 3.6 µM in assay [2]; 3.1 µM in [3]; 5.29 µM in [4]; 2.02 µM in assay [5]; 2.3 µM in assay [6]. Also, the GI50 in assay [7] was 2.76 µM; in assay [8], 3.74 µM; in assay [9], 3.12 µM; in assay [10], 3.58 µM. Also, the TGI in assay [1] is above 100 µM; in [2], 16 µM; in assay [3], 11.8 µM; in [4] it was above 100 µM; in [5], 7.73 µM; in assay [6], 5.34 µM. Also, the TGI was found to be 7.93 µM in assay [7], 16.2 µM in assay [8], 11.3 µM in assay [9] and 20.5 µM in assay [10].
Turning to `CCCCCCCCCCCCCC(=O)CC(=O)c1c(O)cccc1O`, the TGI in assay [1] was 41.6 µM; in assay [2], 41.7 µM; in assay [3], above 100 µM; in assay [4] it was 48.2 µM; in assay [5], 84.2 µM; in assay [6], 59.1 µM. In addition, the TGI was 72.4 µM in [7], above 100 µM in assay [8], above 100 µM in assay [9] and 85.3 µM in [10].
For `O=C(CN1CCN(CCCOc2c(-c3ccccc3)oc3ccccc3c2=O)CC1)Nc1ccc(Cl)cc1C(=O)c1ccccc1Cl`, the GI50 in assay [1] was 0.635 µM; in assay [2] it was above 100 µM; in assay [3] it was 10.4 µM; in assay [4] it was 4.18 µM; in [5], 12.4 µM; in assay [6], 16.6 µM. For the same molecule, the GI50 in [7] is 2.59 µM; in [8], 15.1 µM; in assay [9] it was 5.86 µM; in assay [10], 4.59 µM. For the same molecule, the TGI is 12 µM in assay [1]; above 100 µM in [2]; 28.1 µM in [3]; above 100 µM in assay [4]; 41.9 µM in assay [5]; 57.2 µM in [6]. The TGI in [7] came to 7.14 µM; in assay [8], 54.2 µM; in assay [9] it was 19.1 µM; in [10], 20.5 µM.
For the molecule `Nc1c(Br)cc(Br)c2c1[nH]c(=O)c1ccccc12`, the GI50 in assay [1] was 14 µM; in assay [2], above 100 µM; in [3], 2.56 µM; in assay [4], 37.3 µM; in [5], 20.7 µM; in assay [6], 50.9 µM. In addition, the GI50 in assay [7] was 9.89 µM; in assay [8], 2.85 µM; in assay [9], 5.08 µM; in [10] it was 21.7 µM. In addition, the TGI in assay [1] was above 81.8 µM; in [2], above 100 µM; in [3] it was 6.39 µM; in [4], above 100 µM; in [5], above 100 µM; in assay [6], above 100 µM. Also, the TGI in [7] was above 100 µM; in assay [8], 7.81 µM; in [9], 26.7 µM; in assay [10] it was above 100 µM.
As for `CCC(CO)Nc1nc(NCc2ccccc2O)c2ncn(C(C)C)c2n1` (stereo not given), the GI50 in [1] was 2.21 µM; in [2], 2.08 µM; in assay [3], 5.62 µM; in assay [4], 0.628 µM; in assay [5] it was 2.98 µM; in assay [6], 1.8 µM. The GI50 is 4.41 µM in assay [7], 5.95 µM in assay [8], 4.75 µM in assay [9] and 32.2 µM in [10]. Moreover, the TGI was 9.39 µM in assay [1]; 4.58 µM in [2]; above 100 µM in assay [3]; 16.4 µM in assay [4]; 15.7 µM in assay [5]; 8.52 µM in assay [6]. Further, the TGI was 20.7 µM in assay [7], 41 µM in assay [8], above 100 µM in assay [9] and above 100 µM in [10].
In the case of `Cn1c(=O)nc2n(-c3cccc(Br)c3)c3ccccc3nc-2c1=O`, the concentration for total growth inhibition (TGI) amounted to 26.9 µM in assay [1]; 9.76 µM in assay [2]; 28 µM in assay [3]; 35.9 µM in assay [4]; 4.91 µM in assay [5]; 20.1 µM in assay [6]. For the same molecule, the TGI in assay [7] turned out to be 37.7 µM; in [8] it was 50.5 µM; in assay [9], 19.2 µM; in [10], 6.58 µM.
Take `CC1(c2cccc3ccccc23)OC(=O)c2ccccc21` (stereo not given): the TGI was 52.3 µM in assay [1]; 43.4 µM in [2]; 41.6 µM in assay [3]; 65.8 µM in assay [4]; 38.1 µM in assay [5]; 61.4 µM in assay [6]. Besides, the TGI in assay [7] was 77.6 µM; in [8], 75.8 µM; in assay [9], 45.7 µM; in assay [10], 54.5 µM.
With `CCCc1cc2c(=O)c(C(=O)OC)c[nH]c2cc1N(CC)CC`, the GI50 in assay [1] was 85.8 µM; in [2], 62.5 µM; in [3] it was 20.4 µM; in assay [4], 80.5 µM; in assay [5], 44.5 µM; in assay [6] it was 38.5 µM. The GI50 in assay [7] is 63.2 µM; in assay [8] it was 36.5 µM; in assay [9] it was 18.2 µM; in [10], above 100 µM. Moreover, the TGI in assay [1] is above 100 µM; in assay [2], above 100 µM; in [3], 37.9 µM; in [4], above 100 µM; in [5] it was above 100 µM; in [6], above 100 µM. For the same molecule, the concentration for total growth inhibition (TGI) was above 100 µM in assay [7], above 100 µM in assay [8], 39.8 µM in assay [9] and above 100 µM in assay [10].
`COc1cc(-c2nn(-c3cccc(NC(=O)Nc4cc(C(F)(F)F)cc(C(F)(F)F)c4)c3)cc2-c2ccncc2)ccc1Cl`: the GI50 in assay [1] is 0.498 µM; in assay [2], 0.551 µM; in assay [3], 0.749 µM; in assay [4], 0.279 µM; in assay [5], 0.59 µM; in assay [6], 0.356 µM. For the same molecule, the GI50 in assay [7] was 0.203 µM; in [8], 1.16 µM; in assay [9], 0.36 µM; in assay [10], 0.755 µM. Besides, the TGI came out at 2.79 µM in assay [1]; 11.9 µM in [2]; 1.55 µM in assay [3]; 3.03 µM in assay [4]; 3.94 µM in [5]; 1.43 µM in assay [6]. Moreover, the TGI in assay [7] is 7.74 µM; in [8] it was 2.87 µM; in assay [9] it was 1.13 µM; in assay [10] it was 2.21 µM.
For the molecule `COC(=O)C(=O)OC1(C(C)=O)CC2(c3ccccc3)OC1(c1ccccc1)c1ccccc12` (stereo not given), the TGI in [1] was above 100 µM; in assay [2], above 100 µM; in assay [3], 32.8 µM; in assay [4] it was above 100 µM; in assay [5], 33.3 µM; in assay [6], 34.7 µM. Besides, the total growth inhibition concentration (TGI) in [7] is above 100 µM; in [8], 95.5 µM; in [9] it was 30.5 µM; in assay [10], 31.6 µM.
For the molecule `COc1ccc(/C=C/C(=O)c2ccc(SC)cc2)cc1OC`, the GI50 in [1] is 5.26 µM; in assay [2], 25.7 µM; in assay [3] it was 18.8 µM; in assay [4] it was 4.09 µM; in assay [5], 2.82 µM; in [6], 5 µM. The GI50 in assay [7] was 4.02 µM; in assay [8] it was 34.1 µM; in assay [9] it was 3.53 µM; in assay [10], 17 µM. The TGI in assay [1] amounted to 82.1 µM; in assay [2], 79.6 µM; in [3] it was 42.2 µM; in assay [4] it was 33.8 µM; in [5], 10.4 µM; in assay [6], 27.4 µM. Moreover, the total growth inhibition concentration (TGI) in assay [7] is 21.2 µM; in assay [8] it was above 100 µM; in assay [9], 13.8 µM; in assay [10], 30.9 µM.
